The numbers were not newly measured in patent publication US7060729B2, “Composition and method for treating skin” (priority 2002, dated 2006), which cites them from elsewhere.

Like-named read-outs stand apart in the source and are kept apart here.

For series [1] the following is noted: topical application.
For series [2] the following is noted: in vivo.
Series [3] deals with H. pylori. The following applies: Mayr-Kanhauser 2001.
For series [4] the following is noted: as stated in US 5,972,993.

`O=C(O)CCCCCCCC(=O)O` [azelaic acid, 1,7-heptanedicarboxylic acid]: in series [1], the “inflammatory papule lesions and erythema” value is on record as “significantly reduce”; the “pustules caused by rosacea” value was “not effective”; the telangiectasia result is listed as “did not produce any major improvement”. For the same compound, in series [2], the “erythema, dryness, and burning associated with rosacea” value is “effective”; the “physicians' rating of global improvement, azelaic acid versus metronidazole” value is on record as “more favorably”; the “reducing the number of inflammatory lesions and associated signs and symptoms of rosacea” value was “equally effective”; the telangiectasia result is listed as “failed to effect”.

Consider `CC[C@H]1OC(=O)[C@H](C)[C@@H](O[C@H]2C[C@@](C)(OC)[C@@H](O)[C@H](C)O2)[C@H](C)[C@@H](O[C@@H]2O[C@H](C)C[C@H](N(C)C)[C@H]2O)[C@](C)(OC)C[C@@H](C)C(=O)[C@H](C)[C@@H](O)[C@]1(C)O` [clarithromycin], for which the “eliminating H. pylori” value in series [3] is “effective”.

As for `Cc1ncc([N+](=O)[O-])n1CCO` [metronidazole, 2-methyl-5-nitro-1H-imidazole-1-ethanol], in series [3], the “eliminating H. pylori” value is “effective”. In series [4], the “effect against skin redness, telangiectasia or flushing” value is reported as “ineffective”; the “effect on papules and pustules of rosacea” value is “have an effect”. Besides, in series [2], the “erythema, dryness, and burning associated with rosacea” value was “effective”; the “reducing the number of inflammatory lesions and associated signs and symptoms of rosacea” value is on record as “equally effective”; the telangiectasia entry is given as “failed to effect”.
